The test system of data set [1] is UO-31 (Renal Cancer). Description: NCI 59 cell line panel, single dose. The following applies: UO-31, one dose 10.0 μM. The format is cell-based.
The target of data set [2] is T1, COX-2 (Ovis aries, UniProt P79208).
T1 construct: purchased Cayman Chemicals Inc., Ann Arbour, MI
T1 sequence (P79208 17-603): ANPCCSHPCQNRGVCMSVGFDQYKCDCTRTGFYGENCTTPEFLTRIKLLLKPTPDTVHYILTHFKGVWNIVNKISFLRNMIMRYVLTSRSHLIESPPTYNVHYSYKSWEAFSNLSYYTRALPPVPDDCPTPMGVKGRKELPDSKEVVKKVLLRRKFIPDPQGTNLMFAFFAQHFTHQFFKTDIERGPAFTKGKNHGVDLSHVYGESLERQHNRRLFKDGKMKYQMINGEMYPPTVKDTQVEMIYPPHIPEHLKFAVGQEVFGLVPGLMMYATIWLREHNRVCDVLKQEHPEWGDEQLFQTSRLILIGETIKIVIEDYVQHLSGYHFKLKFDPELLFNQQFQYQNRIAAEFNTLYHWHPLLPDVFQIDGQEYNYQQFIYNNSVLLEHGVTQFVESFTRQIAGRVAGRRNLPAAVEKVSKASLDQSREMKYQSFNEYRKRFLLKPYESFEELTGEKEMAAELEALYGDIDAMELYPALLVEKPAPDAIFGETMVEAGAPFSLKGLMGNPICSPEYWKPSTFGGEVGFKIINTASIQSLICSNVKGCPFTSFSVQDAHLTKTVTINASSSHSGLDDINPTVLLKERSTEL
The data set can be described thus: colorimetric COX (ovine) inhibitor screening assay kit. The format is biochemical. The following applies: for SI, selectivity index (COX-1 IC50/COX-2 IC50): ovine COX-1/COX-2; for IC50: ovine COX-2, mean of two determinations. The text has this: (§1) To determine the relative ability of the test compounds and reference drugs to inhibit COX-1/COX-2 isozymes, we used the colorimetric COX (ovine) inhibitor screening assay kit (Cayman Chemicals Inc., Ann Arbour, MI), according to the manufacturer’s instructions[3]^,[10]^,[11]^,[20].

Data set [3] concerns the target T2, COX-1 (Ovis aries, UniProt P05979).
T2 construct: purchased Cayman Chemicals Inc., Ann Arbour, MI
T2 sequence (P05979 25-600): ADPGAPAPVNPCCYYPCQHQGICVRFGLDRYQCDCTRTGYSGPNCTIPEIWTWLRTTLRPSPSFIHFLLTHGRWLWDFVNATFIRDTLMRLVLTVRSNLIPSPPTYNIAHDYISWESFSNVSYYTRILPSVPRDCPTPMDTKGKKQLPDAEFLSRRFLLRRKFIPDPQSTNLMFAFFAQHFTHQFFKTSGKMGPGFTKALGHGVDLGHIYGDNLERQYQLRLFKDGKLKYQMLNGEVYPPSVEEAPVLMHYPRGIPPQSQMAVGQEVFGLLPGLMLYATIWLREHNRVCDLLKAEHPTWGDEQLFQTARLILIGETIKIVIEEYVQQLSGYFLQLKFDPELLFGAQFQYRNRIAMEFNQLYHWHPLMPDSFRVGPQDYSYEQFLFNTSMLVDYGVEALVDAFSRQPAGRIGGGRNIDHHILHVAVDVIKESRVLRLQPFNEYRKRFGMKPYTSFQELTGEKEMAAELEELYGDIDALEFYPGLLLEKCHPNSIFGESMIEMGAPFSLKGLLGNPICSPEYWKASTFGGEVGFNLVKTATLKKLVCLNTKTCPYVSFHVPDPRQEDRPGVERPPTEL
The data set is described as above. The following applies: ovine COX-1, mean of two determinations. The format is biochemical.
From the text: as §1

The subject of data set [4] is carrageenan induced rat paw oedema. Description: rat carrageenan-induced foot paw oedema model. The format is in vivo. The following applies: for Mean % increase in paw weight ± SEM / % Inhibition of paw oedema from control group: 2 h after carrageenan; for Mean % increase in paw weight ± SEM: control group 165.6 ± 1.6; for % Inhibition of paw oedema from control group: single dose screen (Table 1). The protocol:
Anti-inflammatory assessment of the newly synthesised compounds was carried out using an in vivo rat carrageenan-induced foot paw oedema model, as reported previously[16]^,[17].

Data set [5] relates to CAKI-1 (Renal Cancer). The data set can be described thus: NCI 59 cell line panel, single dose. Particulars: CAKI-1, one dose 10.0 μM. The format is cell-based.
Data set [6] has as its system 59 cancer cell lines. The data set can be described thus: full NCI 59 cell line panel assay, single dose. The format is cell-based. Particulars: one dose 10.0 μM, 59 cell lines.
Data set [7] deals with NCI-H522 (NSC Lung Cancer). Description: NCI 59 cell line panel, single dose. The format is cell-based. Particulars: NCI-H522, one dose 10.0 μM.
Data set [8] relates to HL-60(TB) (Leukaemia). The data set can be described thus: NCI 59 cell line panel, single dose. The format is cell-based. The following applies: one dose 10.0 μM.
Data set [9] has as its system TK-10 (Renal Cancer). The data set can be described thus: NCI 59 cell line panel, single dose. The following applies: TK-10, one dose 10.0 μM. The format is cell-based.
The test system of data set [10] is mice. Description: Ulcerogenicity measurement. The format is in vivo. The protocol: Ulcerogenicity was evaluated according to a previously reported method[6]^a,[17]^,[18]. The number and total length of the ulcers for each animal were measured and their averages were calculated and used as the ulcer indices.
For data set [11], the system named is NCI-H322M (NSC Lung Cancer). The data set can be described thus: NCI 59 cell line panel, single dose. The format is cell-based. Particulars: one dose 10.0 μM.
Data set [12] deals with PC-3 (Prostate Cancer). Description: NCI 59 cell line panel, single dose. The format is cell-based. Particulars: PC-3, one dose 10.0 μM.
Data set [13] deals with HOP-92 (NSC Lung Cancer). Description: NCI 59 cell line panel, single dose. The format is cell-based. The following applies: HOP-92, one dose 10.0 μM.
Data set [14] has as its system NCI-H23 (NSC Lung Cancer). Description: NCI 59 cell line panel, single dose. Particulars: NCI-H23, one dose 10.0 μM.
From the text: (§2) These cell lines were obtained from nine different organs including leukaemia, non-small cell lung, colon, CNS, melanoma, ovarian, renal, prostate, and breast[19].
Data set [15] relates to NCI-H226 (NSC Lung Cancer). The data set can be described thus: NCI 59 cell line panel, single dose. Particulars: NCI-H226, one dose 10.0 μM.
Data set [16] relates to MDA-MB-468 (Breast Cancer). The data set can be described thus: NCI 59 cell line panel, single dose. Particulars: MDA-MB-468, one dose 10.0 μM.
The subject of data set [17] is SR (Leukaemia). Description: NCI 59 cell line panel, single dose. The following applies: one dose 10.0 μM.
The test system of data set [18] is PRMI-8226 (Leukaemia). Description: NCI 59 cell line panel, single dose. The following applies: PRMI-8226, one dose 10.0 μM.
In data set [19] the test system is HCT-116 (Colon Cancer). Description: NCI 59 cell line panel, single dose. The following applies: HCT-116, one dose 10.0 μM.
From the text: as §2
Data set [20] concerns MDA-MB-231/ATCC (Breast Cancer). The data set can be described thus: NCI 59 cell line panel, single dose. The following applies: one dose 10.0 μM.
Data set [21] deals with HCT-15 (Colon Cancer). Description: NCI 59 cell line panel, single dose. Particulars: HCT-15, one dose 10.0 μM.
From the text: as §2
Data set [22] relates to DU-145 (Prostate Cancer). The data set can be described thus: NCI 59 cell line panel, single dose. Particulars: DU-145, one dose 10.0 μM.
From the text: as §2
Data set [23] relates to SF-539 (CNS Cancer). The data set can be described thus: NCI 59 cell line panel, single dose. Particulars: SF-539, one dose 10.0 μM.
From the text: as §2
For data set [24], the system named is EKVX (NSC Lung Cancer). The data set can be described thus: NCI 59 cell line panel, single dose. The following applies: one dose 10.0 μM.
For data set [25], the system named is HT29 (Colon Cancer). Description: NCI 59 cell line panel, single dose. The following applies: HT29, one dose 10.0 μM.
From the text: as §2
The test system of data set [26] is MOLT-4 (Leukaemia). The data set can be described thus: NCI 59 cell line panel, single dose. The following applies: MOLT-4, one dose 10.0 μM.
Data set [27] has as its system LOX IMVI (Melanoma). The data set can be described thus: NCI 59 cell line panel, single dose. The following applies: one dose 10.0 μM.
From the text: as §2
In data set [28] the test system is SF-295 (CNS Cancer). The data set can be described thus: NCI 59 cell line panel, single dose. The following applies: SF-295, one dose 10.0 μM.
From the text: as §2
Data set [29] deals with U251 (CNS Cancer). Description: NCI 59 cell line panel, single dose. Particulars: U251, one dose 10.0 μM.
From the text: as §2
Data set [30] concerns A498 (Renal Cancer). Description: NCI 59 cell line panel, single dose. The following applies: A498, one dose 10.0 μM.
From the text: as §2
Data set [31] has as its system T-47D (Breast Cancer). Description: NCI 59 cell line panel, single dose. Particulars: one dose 10.0 μM.

The structures appear in SMILES notation. Several values for one entry are separate records, joined by “and”; a condition that tells them apart may be missing. Equal entries are not always repeated. Where only a bound is given, the exact number is not on record here.

On to `NS(=O)(=O)c1cccc(N2C(=O)CCC2=O)c1` [Compound 2, 3-(2,5-Dioxopyrrolidin-1-yl)benzenesulfonamide], for which the melting point fell in the range of 195 to 197 °C. The GI% in data set [1] is 13%. Moreover, in data set [2], the “SI, selectivity index (COX-1 IC50/COX-2 IC50)” value is listed as greater than 192.3 and 260 nM corresponded to half-maximal inhibition (IC50). Further, the IC50 in data set [3] was greater than 50000 nM. Also, in data set [4], the “Mean % increase in paw weight ± SEM” value stood at 53.2 ± 0.4%; the “% Inhibition of paw oedema from control group” value (from here on “% Inhibition of paw oedema”) was 71.2% and 71.2 ± 0.5%. In addition, the GI% in data set [5] came to 12%. Besides, in [6], the “PCE (positive cytotoxic effect: cell lines with growth inhibition >10% / total number of cell lines)” value is given as 3/59. In data set [7], the GI% worked out at 12%.
Take `NS(=O)(=O)c1cccc(N2C(=O)c3ccccc3C2=O)c1` [Compound 4]: the GI% worked out at 18% in [8], 11% in data set [9] and 16.0% in data set [7]. Moreover, in [2], the “SI, selectivity index (COX-1 IC50/COX-2 IC50)” value is on record as greater than 277.8. For the same molecule, the IC50 was 180 nM in [2] and greater than 50000 nM in data set [3]. For the same molecule, the “Mean % increase in paw weight ± SEM” value in data set [4] is 41.0 ± 0.2%. In addition, the “% Inhibition of paw oedema” value in data set [4] is 77.8% and 77.8 ± 0.6%. Also, the figures for the “Percentage inhibition of paw oedema from control group” value in data set [4] (dose 45 mg/kg), in [4] (dose 65 mg/kg) and in data set [4] (dose 80 mg/kg) were 65.0%, 77.8% and 86.2%, respectively. The median effective dose (ED50) in [4] (from three graded doses (45, 65, 80 mg/kg)) amounted to 45.3 mg/kg. In addition, in data set [6], the “PCE (positive cytotoxic effect: cell lines with growth inhibition >10% / total number of cell lines)” value is recorded as 3/59. For the same molecule, the “Average number of ulcers” value in data set [10] (mice) is listed as 6. Also, the “Mean sum of lengths of elongated ulcer” value in [10] (mice, ± SEM) turned out to be 4.7 ± 0.54 mm. The “level of ulcerogenic activity (in words)” value in data set [10] (relative to diclofenac and celecoxib) is “ulcerogenic level similar to celecoxib and less than that of diclofenac”.
For the molecule `Cc1ccc2c(c1)C(=O)N(c1cccc(S(N)(=O)=O)c1)C2=O` [Compound 5, 3-(5-Methyl-1,3-dioxoisoindolin-2-yl)benzenesulfonamide], the melting point was 225 to 226 °C. The same molecule showed a GI% in data set [11] of 11%. Also, in [1], the GI% worked out at 17%. Further, the GI% in [12] is given as 11%. Besides, in [2], the “SI, selectivity index (COX-1 IC50/COX-2 IC50)” value was greater than 55.6 and the IC50 stood at 900 nM. The same molecule showed an IC50 in data set [3] greater than 50000 nM. In data set [4], the “Mean % increase in paw weight ± SEM” value is 78.1 ± 0.7%; the “% Inhibition of paw oedema” value was 57.7% and 57.7 ± 0.5%. In [13], the GI% was 11%. The “PCE (positive cytotoxic effect: cell lines with growth inhibition >10% / total number of cell lines)” value in [6] was 5/59. The same molecule had a GI% in data set [7] of 11%.
Turning to `Cc1ccc(NC(=O)c2ccc(CN3CCN(C)CC3)cc2)cc1Nc1nccc(-c2cccnc2)n1` [Imatinib], the GI% in data set [14] is listed as 17.1%; in data set [15], 10.6%; in data set [12], 10.6%; in [16], 29.1%; in [17], 14.6%; in [18], 12.6%. In addition, the GI% in data set [19] was determined as 18.6%; in [20], 11.2%; in [21] it was 11.5%; in data set [22], 14.4%; in [23], 24.5%; in data set [24], 15.7%. Besides, the GI% in [25] turned out to be 47.1%; in [26] it was 18.0%; in data set [27] it was 11.6%; in [28], 15.1%; in data set [29] it was 10.6%; in data set [30], 13.7%. This molecule also showed a GI% in [31] of 18.6%. For the same molecule, the “PCE (positive cytotoxic effect: cell lines with growth inhibition >10% / total number of cell lines)” value in [6] is on record as 20/59.
